Assays:
MAP4K4 = MAP4K4 (Homo sapiens, UniProt O95819); assay: Kinase activity assay, MAP4K4
B-Raf V600E = B-Raf V600E (Homo sapiens, UniProt P15056, V600E); assay: Kinase activity assay, B-Raf V600E; type: biochemical; details: read-out: activity toward kinase B-Raf V600E, IC50
C-Raf = C-Raf (Homo sapiens, UniProt P04049); assay: Kinase activity assay, C-Raf
Src = Src (Homo sapiens, UniProt P12931); assay: Kinase activity assay, Src
B-Raf = B-Raf (Homo sapiens, UniProt P15056); assay: Kinase activity assay, B-Raf; type: biochemical; details: read-out: activity toward kinase B-Raf, IC50
Kdr = Kdr (Homo sapiens, UniProt P35968); assay: Kinase activity assay, Kdr
Kit = Kit (Homo sapiens, UniProt P10721); assay: Kinase activity assay, Kit
Chain of Kit (P10721 26-976): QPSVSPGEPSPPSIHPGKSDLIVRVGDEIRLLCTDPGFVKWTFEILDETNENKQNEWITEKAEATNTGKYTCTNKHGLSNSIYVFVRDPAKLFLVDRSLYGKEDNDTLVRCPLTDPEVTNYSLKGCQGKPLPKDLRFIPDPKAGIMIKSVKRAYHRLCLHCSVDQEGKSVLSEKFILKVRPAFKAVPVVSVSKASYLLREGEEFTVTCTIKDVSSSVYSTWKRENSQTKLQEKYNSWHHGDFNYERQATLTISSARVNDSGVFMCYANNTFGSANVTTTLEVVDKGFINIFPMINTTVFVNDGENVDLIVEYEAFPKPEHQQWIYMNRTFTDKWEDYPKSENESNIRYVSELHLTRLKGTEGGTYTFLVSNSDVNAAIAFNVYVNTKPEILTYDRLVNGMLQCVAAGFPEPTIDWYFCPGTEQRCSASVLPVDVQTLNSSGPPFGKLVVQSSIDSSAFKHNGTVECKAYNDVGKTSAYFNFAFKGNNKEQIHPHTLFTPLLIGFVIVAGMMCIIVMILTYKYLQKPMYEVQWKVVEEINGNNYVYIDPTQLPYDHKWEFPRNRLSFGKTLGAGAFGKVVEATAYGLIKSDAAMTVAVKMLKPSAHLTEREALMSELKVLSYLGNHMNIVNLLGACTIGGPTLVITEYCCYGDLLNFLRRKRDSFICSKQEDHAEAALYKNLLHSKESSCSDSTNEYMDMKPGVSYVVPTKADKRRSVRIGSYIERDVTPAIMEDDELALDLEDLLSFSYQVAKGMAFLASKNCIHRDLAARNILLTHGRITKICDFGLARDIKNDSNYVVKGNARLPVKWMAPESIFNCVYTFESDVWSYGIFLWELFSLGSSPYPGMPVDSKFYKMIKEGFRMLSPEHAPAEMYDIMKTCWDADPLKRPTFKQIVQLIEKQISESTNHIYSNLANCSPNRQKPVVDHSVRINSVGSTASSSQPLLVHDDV

Fms = Fms (Homo sapiens, UniProt P07333); assay: Kinase activity assay, Fms
Chain of Fms (P07333 20-972): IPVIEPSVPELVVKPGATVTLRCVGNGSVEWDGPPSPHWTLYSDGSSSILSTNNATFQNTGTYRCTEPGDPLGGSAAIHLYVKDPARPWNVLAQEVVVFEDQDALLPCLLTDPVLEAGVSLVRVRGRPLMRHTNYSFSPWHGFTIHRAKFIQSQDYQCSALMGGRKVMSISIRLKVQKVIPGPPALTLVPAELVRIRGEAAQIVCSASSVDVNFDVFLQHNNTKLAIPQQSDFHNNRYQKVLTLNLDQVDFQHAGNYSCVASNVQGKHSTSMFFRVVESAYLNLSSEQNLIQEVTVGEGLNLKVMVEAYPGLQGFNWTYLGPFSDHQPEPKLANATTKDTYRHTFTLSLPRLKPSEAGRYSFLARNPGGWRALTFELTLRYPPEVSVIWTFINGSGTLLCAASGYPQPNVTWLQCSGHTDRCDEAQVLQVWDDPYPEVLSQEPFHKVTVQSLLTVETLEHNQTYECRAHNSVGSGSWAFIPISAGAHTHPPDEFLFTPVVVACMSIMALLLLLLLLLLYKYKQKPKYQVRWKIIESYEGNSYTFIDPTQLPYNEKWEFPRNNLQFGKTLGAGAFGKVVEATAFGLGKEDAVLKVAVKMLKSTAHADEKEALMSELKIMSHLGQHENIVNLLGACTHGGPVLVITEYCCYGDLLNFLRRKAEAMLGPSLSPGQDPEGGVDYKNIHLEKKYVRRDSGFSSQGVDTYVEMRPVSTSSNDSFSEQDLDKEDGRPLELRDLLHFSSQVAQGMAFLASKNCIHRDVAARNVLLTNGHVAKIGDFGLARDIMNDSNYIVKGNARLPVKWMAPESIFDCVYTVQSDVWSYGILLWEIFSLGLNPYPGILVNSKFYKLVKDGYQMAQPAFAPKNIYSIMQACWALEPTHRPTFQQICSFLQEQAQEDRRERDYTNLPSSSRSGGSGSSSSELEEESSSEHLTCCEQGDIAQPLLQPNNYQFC

Chain of C-Raf (P04049 whole entry): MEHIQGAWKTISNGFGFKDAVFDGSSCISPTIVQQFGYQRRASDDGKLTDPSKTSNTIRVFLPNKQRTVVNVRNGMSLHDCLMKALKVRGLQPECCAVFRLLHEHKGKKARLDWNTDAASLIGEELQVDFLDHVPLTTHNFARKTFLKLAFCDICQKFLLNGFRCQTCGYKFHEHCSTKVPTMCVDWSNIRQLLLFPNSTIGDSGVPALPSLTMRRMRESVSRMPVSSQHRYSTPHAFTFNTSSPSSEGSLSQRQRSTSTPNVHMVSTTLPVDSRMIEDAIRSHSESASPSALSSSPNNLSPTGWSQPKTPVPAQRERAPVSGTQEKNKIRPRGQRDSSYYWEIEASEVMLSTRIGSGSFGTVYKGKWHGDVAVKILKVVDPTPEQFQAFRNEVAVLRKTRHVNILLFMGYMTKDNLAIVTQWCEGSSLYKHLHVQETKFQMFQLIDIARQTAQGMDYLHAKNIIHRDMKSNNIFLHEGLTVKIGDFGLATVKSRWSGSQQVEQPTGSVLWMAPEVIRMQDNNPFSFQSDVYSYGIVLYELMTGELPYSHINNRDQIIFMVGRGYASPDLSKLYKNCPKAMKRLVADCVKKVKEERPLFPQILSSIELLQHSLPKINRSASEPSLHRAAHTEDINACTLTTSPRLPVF
Chain of Src (P12931 whole entry): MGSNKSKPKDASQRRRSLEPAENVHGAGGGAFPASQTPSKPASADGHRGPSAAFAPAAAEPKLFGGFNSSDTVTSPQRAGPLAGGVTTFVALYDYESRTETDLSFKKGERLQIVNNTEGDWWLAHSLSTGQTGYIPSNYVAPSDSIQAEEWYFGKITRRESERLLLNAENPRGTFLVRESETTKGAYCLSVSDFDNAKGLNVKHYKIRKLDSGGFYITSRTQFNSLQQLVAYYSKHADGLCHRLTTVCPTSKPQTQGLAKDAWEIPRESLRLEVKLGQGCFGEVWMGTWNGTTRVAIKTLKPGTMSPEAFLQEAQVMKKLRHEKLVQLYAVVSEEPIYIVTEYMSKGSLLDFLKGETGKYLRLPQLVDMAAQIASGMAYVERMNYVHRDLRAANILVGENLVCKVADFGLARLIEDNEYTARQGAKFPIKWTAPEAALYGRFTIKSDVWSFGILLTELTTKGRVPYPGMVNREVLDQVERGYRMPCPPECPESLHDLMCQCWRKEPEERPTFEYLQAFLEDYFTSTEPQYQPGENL
Chain of B-Raf V600E (P15056 whole entry V600E): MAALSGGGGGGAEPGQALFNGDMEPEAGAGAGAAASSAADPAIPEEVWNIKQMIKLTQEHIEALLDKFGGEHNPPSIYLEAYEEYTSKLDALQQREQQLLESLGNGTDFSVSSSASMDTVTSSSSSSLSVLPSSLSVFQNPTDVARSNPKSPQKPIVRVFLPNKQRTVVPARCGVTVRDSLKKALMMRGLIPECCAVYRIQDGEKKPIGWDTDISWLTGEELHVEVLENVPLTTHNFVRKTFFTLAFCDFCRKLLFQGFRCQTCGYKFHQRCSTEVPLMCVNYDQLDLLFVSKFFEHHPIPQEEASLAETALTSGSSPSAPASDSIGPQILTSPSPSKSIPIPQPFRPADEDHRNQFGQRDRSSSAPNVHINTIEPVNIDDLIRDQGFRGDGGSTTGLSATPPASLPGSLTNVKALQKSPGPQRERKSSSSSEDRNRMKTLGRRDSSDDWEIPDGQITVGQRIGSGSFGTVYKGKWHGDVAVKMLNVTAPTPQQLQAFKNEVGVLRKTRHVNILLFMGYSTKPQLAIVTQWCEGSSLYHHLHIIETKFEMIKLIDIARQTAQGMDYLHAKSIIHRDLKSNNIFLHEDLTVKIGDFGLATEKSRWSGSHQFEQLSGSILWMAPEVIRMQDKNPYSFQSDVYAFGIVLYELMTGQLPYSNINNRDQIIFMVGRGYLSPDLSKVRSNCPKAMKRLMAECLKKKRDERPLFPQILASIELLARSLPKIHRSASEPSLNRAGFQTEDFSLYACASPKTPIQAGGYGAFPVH
Chain of MAP4K4 (O95819 whole entry): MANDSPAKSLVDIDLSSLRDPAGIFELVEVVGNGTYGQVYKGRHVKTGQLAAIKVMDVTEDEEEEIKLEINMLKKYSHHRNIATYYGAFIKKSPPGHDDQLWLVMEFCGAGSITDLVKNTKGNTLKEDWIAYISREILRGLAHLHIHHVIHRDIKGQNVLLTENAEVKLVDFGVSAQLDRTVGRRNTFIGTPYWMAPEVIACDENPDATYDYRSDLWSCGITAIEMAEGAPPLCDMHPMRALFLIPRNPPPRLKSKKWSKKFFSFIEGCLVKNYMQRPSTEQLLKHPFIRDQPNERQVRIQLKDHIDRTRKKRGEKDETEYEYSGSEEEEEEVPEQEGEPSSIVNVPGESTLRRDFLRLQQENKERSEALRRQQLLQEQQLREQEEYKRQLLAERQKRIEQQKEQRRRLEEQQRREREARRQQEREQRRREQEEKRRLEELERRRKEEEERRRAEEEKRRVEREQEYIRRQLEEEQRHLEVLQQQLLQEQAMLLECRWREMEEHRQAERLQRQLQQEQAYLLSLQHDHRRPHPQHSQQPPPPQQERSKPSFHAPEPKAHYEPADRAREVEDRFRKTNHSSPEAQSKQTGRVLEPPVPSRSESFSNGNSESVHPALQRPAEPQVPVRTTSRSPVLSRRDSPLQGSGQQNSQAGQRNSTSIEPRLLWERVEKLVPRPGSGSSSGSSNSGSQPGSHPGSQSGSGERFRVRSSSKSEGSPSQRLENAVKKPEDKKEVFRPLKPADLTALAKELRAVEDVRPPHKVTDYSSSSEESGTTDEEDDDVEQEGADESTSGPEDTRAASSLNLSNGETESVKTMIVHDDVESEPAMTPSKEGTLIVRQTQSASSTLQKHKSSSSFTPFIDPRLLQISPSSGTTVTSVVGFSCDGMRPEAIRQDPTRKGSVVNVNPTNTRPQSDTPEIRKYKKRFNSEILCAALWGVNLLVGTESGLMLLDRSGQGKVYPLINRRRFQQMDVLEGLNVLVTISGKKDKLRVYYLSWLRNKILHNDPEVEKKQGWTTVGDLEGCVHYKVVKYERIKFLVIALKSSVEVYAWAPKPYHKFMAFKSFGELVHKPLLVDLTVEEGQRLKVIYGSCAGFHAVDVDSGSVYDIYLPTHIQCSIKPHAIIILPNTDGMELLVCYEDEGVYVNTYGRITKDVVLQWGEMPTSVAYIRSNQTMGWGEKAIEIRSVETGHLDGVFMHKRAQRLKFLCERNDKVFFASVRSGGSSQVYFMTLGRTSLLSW

SMILES	IC50 (MAP4K4)	IC50 (B-Raf V600E)	IC50 (C-Raf)	IC50 (Src)	IC50 (B-Raf)	IC50 (Kdr)	IC50 (Kit)	IC50 (Fms)
Cc1cnc2[nH]cc(C(=O)c3c(F)ccc(NS(=O)(=O)c4ccc(F)cc4F)c3F)c2c1 [P-2025, N-[2,4-Difluoro-3-(5-methyl-1H-pyrrolo[2,3-b]pyridine-3-carbonyl)-phenyl]-2,4-difluoro-benzenesulfonamide]	≤ 10 µM	≤ 10 µM	≤ 10 µM	≤ 10 µM	≤ 10 µM	≤ 10 µM	≤ 10 µM	–
Cc1cnc2[nH]cc(C(=O)c3cccc(NS(=O)(=O)c4cccnc4)c3)c2c1 [P-2141, Pyridine-3-sulfonic acid [3-(5-methyl-1H-pyrrolo[2,3-b]pyridine-3-carbonyl)-phenyl]-amide]	≤ 10 µM	–	–	–	–	≤ 10 µM	≤ 10 µM	≤ 10 µM
O=C(c1c(F)ccc(NS(=O)(=O)c2ccc(F)cc2F)c1F)c1c[nH]c2nccc(Cl)c12 [P-2034, N-[3-(4-Chloro-1H-pyrrolo[2,3-b]pyridine-3-carbonyl)-2,4-difluoro-phenyl]-2,4-difluoro-benzenesulfonamide]	≤ 10 µM	≤ 10 µM	≤ 10 µM	≤ 10 µM	≤ 10 µM	≤ 10 µM	≤ 10 µM	–
O=C(c1c(F)ccc(NS(=O)(=O)c2c(F)cccc2F)c1F)c1c[nH]c2nccc(Cl)c12 [P-2033, N-[3-(4-Chloro-1H-pyrrolo[2,3-b]pyridine-3-carbonyl)-2,4-difluoro-phenyl]-2,6-difluoro-benzenesulfonamide]	≤ 10 µM	≤ 10 µM	≤ 10 µM	≤ 10 µM	≤ 10 µM	≤ 10 µM	≤ 10 µM	–
CCCS(=O)(=O)Nc1ccc(F)c(C(=O)c2c[nH]c3ncc(-c4ccc(S(=O)(=O)N5CCOCC5)cc4)cc23)c1F [P-2166, Propane-1-sulfonic acid (2,4-difluoro-3-{5-[4-(morpholine-4-sulfonyl)-phenyl]-1H-pyrrolo[2,3-b]pyridine-3-carbonyl}-phenyl)-amide]	–	≤ 10 µM	≤ 10 µM	≤ 10 µM	≤ 10 µM	≤ 10 µM	≤ 10 µM	≤ 10 µM
CCCS(=O)(=O)Nc1ccc(F)c(C(=O)c2c[nH]c3ncc(-c4cnc(N5CCCC5)nc4)cc23)c1F [P-2219, Propane-1-sulfonic acid {2,4-difluoro-3-[5-(2-pyrrolidin-1-yl-pyrimidin-5-yl)-1H-pyrrolo[2,3-b]pyridine-3-carbonyl]-phenyl}-amide]	≤ 10 µM	≤ 10 µM	≤ 10 µM	≤ 10 µM	≤ 10 µM	≤ 10 µM	–	–
O=C(c1cccc(NS(=O)(=O)c2cccnc2)c1)c1c[nH]c2ncc(Cl)cc12 [P-2146, Pyridine-3-sulfonic acid [3-(5-chloro-1H-pyrrolo[2,3-b]pyridine-3-carbonyl)-phenyl]-amide]	≤ 10 µM	–	–	–	–	≤ 10 µM	–	–
CCCS(=O)(=O)Nc1ccc(F)c(C(=O)c2c[nH]c3ncc(-c4ccc(S(=O)(=O)NCCO)cc4)cc23)c1F [P-2221, 4-{3-[2,6-Difluoro-3-(propane-1-sulfonylamino)-benzoyl]-1H-pyrrolo[2,3-b]pyridin-5-yl}-N-(2-hydroxy-ethyl)-benzenesulfonamide]	≤ 10 µM	–	–	–	–	≤ 10 µM	≤ 10 µM	≤ 10 µM
O=C(c1cccc(NS(=O)(=O)c2cccnc2)c1)c1c[nH]c2ncc(F)cc12 [P-2143, Pyridine-3-sulfonic acid [3-(5-fluoro-1H-pyrrolo[2,3-b]pyridine-3-carbonyl)-phenyl]-amide]	≤ 10 µM	–	≤ 10 µM	–	–	≤ 10 µM	–	≤ 10 µM
O=C(c1c(F)ccc(NS(=O)(=O)c2ccc(F)cc2)c1F)c1c[nH]c2nccc(Cl)c12 [P-2026, N-[3-(4-Chloro-1H-pyrrolo[2,3-b]pyridine-3-carbonyl)-2,4-difluoro-phenyl]-4-fluoro-benzenesulfonamide]	≤ 10 µM	≤ 10 µM	≤ 10 µM	≤ 10 µM	≤ 10 µM	≤ 10 µM	≤ 10 µM	–
CCCS(=O)(=O)Nc1ccc(F)c(C(=O)c2c[nH]c3ncc(-c4ccc(S(=O)(=O)C(C)C)cc4)cc23)c1F [P-2223, Propane-1-sulfonic acid (2,4-difluoro-3-{5-[4-(propane-2-sulfonyl)-phenyl]-1H-pyrrolo[2,3-b]pyridine-3-carbonyl}-phenyl)-amide]	≤ 10 µM	≤ 10 µM	≤ 10 µM	≤ 10 µM	≤ 10 µM	≤ 10 µM	≤ 10 µM	–
CCCS(=O)(=O)Nc1ccc(F)c(C(=O)c2c[nH]c3ncc(-c4ccc(S(=O)(=O)N(C)C)cc4)cc23)c1F [P-2185, 4-{3-[2,6-Difluoro-3-(propane-1-sulfonylamino)-benzoyl]-1H-pyrrolo[2,3-b]pyridin-5-yl}-N,N-dimethyl-benzenesulfonamide]	–	≤ 10 µM	≤ 10 µM	≤ 10 µM	≤ 10 µM	≤ 10 µM	≤ 10 µM	≤ 10 µM
O=C(c1c(F)ccc(NS(=O)(=O)c2cccnc2)c1F)c1c[nH]c2nccc(Cl)c12 [P-2074, Pyridine-3-sulfonic acid [3-(4-chloro-1H-pyrrolo[2,3-b]pyridine-3-carbonyl)-2,4-difluoro-phenyl]-amide]	≤ 10 µM	–	–	≤ 10 µM	–	–	–	–
Cc1cc(C)cc(S(=O)(=O)Nc2ccc(F)c(C(=O)c3c[nH]c4ncc(Cl)cc34)c2F)c1 [P-2004, N-[3-(5-Chloro-1H-pyrrolo[2,3-b]pyridine-3-carbonyl)-2,4-difluoro-phenyl]-3,5-dimethyl-benzenesulfonamide]	–	≤ 10 µM	≤ 10 µM	≤ 10 µM	≤ 10 µM	≤ 10 µM	≤ 10 µM	≤ 10 µM
CCCS(=O)(=O)Nc1ccc(F)c(C(=O)c2c[nH]c3ncc(-c4ccc(S(=O)(=O)NC)cc4)cc23)c1F [P-2167, 4-{3-[2,6-Difluoro-3-(propane-1-sulfonylamino)-benzoyl]-1H-pyrrolo[2,3-b]pyridin-5-yl}-N-methyl-benzenesulfonamide]	–	≤ 10 µM	≤ 10 µM	≤ 10 µM	≤ 10 µM	≤ 10 µM	≤ 10 µM	≤ 10 µM

More lines, now with the values ahead:

IC50 (MAP4K4)	IC50 (B-Raf V600E)	IC50 (C-Raf)	IC50 (Src)	IC50 (B-Raf)	IC50 (Kdr)	IC50 (Kit)	IC50 (Fms)	SMILES
≤ 10 µM	–	–	–	–	≤ 10 µM	≤ 10 µM	–	Cc1cnc2[nH]cc(C(=O)c3cccc(NS(=O)(=O)C4CCCC4)c3)c2c1 [P-2459, Cyclopentanesulfonic acid [3-(5-methyl-1H-pyrrolo[2,3-b]pyridine-3-carbonyl)-phenyl]-amide]
≤ 10 µM	≤ 10 µM	–	≤ 10 µM	–	≤ 10 µM	≤ 10 µM	–	O=C(O)CCc1cccc(-c2cnc3[nH]cc(C(=O)c4cccc(NS(=O)(=O)C5CCCC5)c4)c3c2)c1 [P-2466, 3-{3-[3-(3-Cyclopentanesulfonylamino-benzoyl)-1H-pyrrolo[2,3-b]pyridin-5-yl]-phenyl}-propionic acid]
≤ 10 µM	–	–	–	–	≤ 10 µM	–	–	CCS(=O)(=O)Nc1ccc(F)c(C(=O)c2c[nH]c3ncc(-c4ccc(Cl)cc4)cc23)c1F [P-2269, Ethanesulfonic acid {3-[5-(4-chloro-phenyl)-1H-pyrrolo[2,3-b]pyridine-3-carbonyl]-2,4-difluoro-phenyl}-amide]
≤ 10 µM	≤ 10 µM	≤ 10 µM	–	≤ 10 µM	≤ 10 µM	–	–	CCS(=O)(=O)Nc1ccc(F)c(C(=O)c2c[nH]c3nccc(OC)c23)c1F [P-2279, Ethanesulfonic acid [2,4-difluoro-3-(4-methoxy-1H-pyrrolo[2,3-b]pyridine-3-carbonyl)-phenyl]-amide]
≤ 10 µM	≤ 10 µM	–	–	–	≤ 10 µM	≤ 10 µM	≤ 10 µM	O=C(c1cccc(NS(=O)(=O)C2CCCC2)c1)c1c[nH]c2ncc(Cl)cc12 [P-2453, Cyclopentanesulfonic acid [3-(5-chloro-1H-pyrrolo[2,3-b]pyridine-3-carbonyl)-phenyl]-amide]
≤ 10 µM	≤ 10 µM	–	–	–	≤ 10 µM	≤ 10 µM	≤ 10 µM	O=C(c1cccc(NS(=O)(=O)C2CCCCC2)c1)c1c[nH]c2ncc(Cl)cc12 [P-2452, Cyclohexanesulfonic acid [3-(5-chloro-1H-pyrrolo[2,3-b]pyridine-3-carbonyl)-phenyl]-amide]
≤ 10 µM	≤ 10 µM	≤ 10 µM	≤ 10 µM	≤ 10 µM	≤ 10 µM	≤ 10 µM	–	Cc1cnc2[nH]cc(C(=O)c3c(F)ccc(NS(=O)(=O)C4CCCCC4)c3F)c2c1 [P-2360, Cyclohexanesulfonic acid [2,4-difluoro-3-(5-methyl-1H-pyrrolo[2,3-b]pyridine-3-carbonyl)-phenyl]-amide]
≤ 10 µM	–	–	–	–	≤ 10 µM	≤ 10 µM	≤ 10 µM	Cc1cnc2[nH]cc(C(=O)c3cccc(NS(=O)(=O)C4CCCCC4)c3)c2c1 [P-2458, Cyclohexanesulfonic acid [3-(5-methyl-1H-pyrrolo[2,3-b]pyridine-3-carbonyl)-phenyl]-amide]

Reference: patent US20120122860A1, “SOLID FORMS OF SULFONAMIDES AND AMINO ACIDS” (Plexxikon, Inc., priority 2009, published 2012)
